These results are taken from patent US20240043420A1, “7-AZAINDOLE COMPOUNDS FOR INHIBITION OF BCR-ABL TYROSINE KINASES” (EnLiven Therapeutics, Inc., priority 2020, published 2024).

Broadly, the IC50 is the concentration at which inhibition is half-maximal.

One test deals with HL60 cells. Briefly: HL60 cell proliferation assay (CellTiter-Glo). Type of test: cell-based. The following applies: Homo sapiens, HL-60, 72 h, CellTiter-Glo viability, read-out: Cell Line (IC50, nM) HL60. Put shortly:
(§1)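 Cells in IMDM/10% FBS seeded at 2,000 (K562) or 1,500 (HL60) per well, exposed to serially diluted compounds for 72 h at 37 °C, 5% CO2. Viability by CellTiter-Glo luminescence, normalized between DMSO (high) and cell-free media (low) controls.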

The next test concerns the target T1, ABL1 (Homo sapiens, UniProt P00519).
T1 construct: purchased Carna Biosciences
The experiment in a line: Luminescence-based ABL kinase assay (ADP-Glo, 300 μM ATP). It is filed as biochemical. In a few lines:
(§2)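 Buffer: 50 mM HEPES pH 7.5, 10 mM MgCl2, 1 mM EGTA, 2 mM DTT, 0.05% BSA. Compound preincubated 30 min at RT with kinase (3.325 nM in enzyme solution), then started with a Peptide 2 (6 μM) and ATP (1.2 mM) solution, both stock levels; 90 min at RT.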

The subject of a further test is K562 cells. The experiment in a line: K562 cell proliferation assay (CellTiter-Glo). Type of test: cell-based. The following applies: Homo sapiens, K562, 72 h, CellTiter-Glo viability, read-out: Cell Line (IC50, nM) K562. Put shortly:
as §1

For another test, the target named is ABL1 (T315I) (Homo sapiens, UniProt P00519, T315I). Briefly: Luminescence-based ABL kinase assay (ADP-Glo, 300 μM ATP), T315I mutant. It is filed as biochemical. Put shortly:
as §2
A general note: ADP-Glo turns the ADP formed in a reaction into a luminescent signal.

A value given as a limit tells only on which side of the number the result lay.

With `O=C(Nc1ccc2c(-c3ccc4[nH]ncc4c3)c[nH]c2n1)C1CC1` [Compound 21, N-(3-(1H-indazol-5-yl)-1H-pyrrolo[2,3-b]pyridin-6-yl)cyclopropanecarboxamide], the IC50 in the test with HL60 cells is 1570 nM; on ABL1 it was 94.8 nM; with K562 cells, 286 nM; against ABL1 (T315I), 8.74 nM.
With `O=C(Nc1ccc2c(-c3cccnc3OC(F)F)c[nH]c2n1)C1CC1` [Compound 48, N-[3-[2-(difluoromethoxy)pyridin-3-yl]-1H-pyrrolo[2,3-b]pyridin-6-yl]cyclopropanecarboxamide], the IC50 amounted to 9210 nM in the test with HL60 cells, 94.9 nM at ABL1, 777 nM in the test with K562 cells and 244 nM on ABL1 (T315I).
For `COc1ccccc1-c1c[nH]c2nc(NC(=O)[C@H]3C[C@H]3CO)ccc12` [Compound 91, (1S,2R)-2-(hydroxymethyl)-N-[3-(2-methoxyphenyl)-1H-pyrrolo[2,3-b]pyridin-6-yl]cyclopropane-1-carboxamide], the IC50 was above 10000 nM in the test on HL60 cells, 166 nM on ABL1, 1080 nM in the test on K562 cells and 24.6 nM at ABL1 (T315I).
The like results for `COc1cccc(OC)c1-c1n[nH]c2nc(NC(=O)[C@@H]3C[C@@H]3F)ccc12` [Compound 78, (1S,2S)—N-(3-(2,6-dimethoxyphenyl)-1H-pyrazolo[3,4-b]pyridin-6-yl)-2-fluorocyclopropane-1-carboxamide] were, in that order, above 10000 nM, 17.8 nM, 94.8 nM and 139 nM.
The corresponding values for `O=C(Nc1ccc2c(-c3ccccc3F)c[nH]c2n1)C1CC1` [Compound 5, N-[3-(2-fluorophenyl)-1H-pyrrolo[2,3-b]pyridin-6-yl]cyclopropanecarboxamide] are above 10000 nM, 119 nM, 713 nM and 32.9 nM.
The corresponding values for `COc1ccccc1-c1c[nH]c2nc(NC(=O)[C@H]3C[C@H]3C#N)ccc12` (relative stereo) [Compound 106, cis-2-cyano-N-[3-(2-methoxyphenyl)-1H-pyrrolo[2,3-b]pyridin-6-yl]cyclopropane-1-carboxamide] are above 10000 nM, 78.1 nM, 275 nM and 26.1 nM.
In the case of `CNCCCNC(=O)Nc1ccc2c(-c3c(OC)cccc3OC)c[nH]c2n1` [Compound 130, 1-[3-(2,6-dimethoxyphenyl)-1H-pyrrolo[2,3-b]pyridin-6-yl]-3-[3-(methylamino)propyl]urea], the IC50 is above 10000 nM in the test on HL60 cells, 67 nM at ABL1, 169 nM in the test on K562 cells and 33.7 nM against ABL1 (T315I).
The like results for `COc1cc2ncnn2cc1-c1c[nH]c2nc(NC(=O)[C@@H]3C[C@@H]3F)ccc12` [Compound 111, (1S,2S)-2-fluoro-N-(3-(7-methoxy-[1,2,4]triazolo[1,5-a]pyridin-6-yl)-1H-pyrrolo[2,3-b]pyridin-6-yl)cyclopropane-1-carboxamide] were, in that order, above 10000 nM, 14.3 nM, 321 nM and 151 nM.
The corresponding values for `Cc1ccccc1-c1c[nH]c2nc(NC(=O)C3CC3)ccc12` [Compound 4, N-[3-(2-methylphenyl)-1H-pyrrolo[2,3-b]pyridin-6-yl]cyclopropanecarboxamide] are above 10000 nM, 113 nM, 223 nM and 32.3 nM.
The like results for `O=C(Nc1ccc2c(-c3ccc4nccn4c3)c[nH]c2n1)[C@@H]1C[C@@H]1F` [Compound 71, (1S,2S)-2-fluoro-N-(3-[imidazo[1,2-a]pyridin-6-yl]-1H-pyrrolo[2,3-b]pyridin-6-yl)cyclopropane-1-carboxamide] were, in that order, 334 nM, 48 nM, 292 nM and 55.2 nM.
With `O=C(Nc1ccc2c(-c3cccnc3OC3CC3)c[nH]c2n1)[C@@H]1C[C@@H]1F` [Compound 69, (1S,2S)—N-[3-(2-cyclopropoxypyridin-3-yl)-1H-pyrrolo[2,3-b]pyridin-6-yl]-2-fluorocyclopropane-1-carboxamide], the IC50 in the test with HL60 cells is above 10000 nM; against ABL1 it was 27.6 nM; in the test with K562 cells, 162 nM; against ABL1 (T315I) it was 27.4 nM.
The like results for `COc1cc2scnc2cc1-c1c[nH]c2nc(NC(=O)[C@@H]3C[C@@H]3F)ccc12` [Compound 85, (1S,2S)-2-fluoro-N-[3-(6-methoxy-1,3-benzothiazol-5-yl)-1H-pyrrolo[2,3-b]pyridin-6-yl]cyclopropane-1-carboxamide] were, in that order, 7250 nM, 5.34 nM, 46 nM and 27.8 nM.
The corresponding values for `O=C(Nc1ccc2c(-c3cccnc3OC(F)F)c[nH]c2n1)[C@@H]1C[C@@H]1F` [Compound 70, (1S,2S)—N-[3-[2-(difluoromethoxy)pyridin-3-yl]-1H-pyrrolo[2,3-b]pyridin-6-yl]-2-fluorocyclopropane-1-carboxamide] are above 10000 nM, 60.3 nM, 312 nM and 140 nM.
The corresponding values for `O=C(Nc1ccc2c(-c3cccnc3OCC(F)(F)F)c[nH]c2n1)[C@@H]1C[C@@H]1F` [Compound 126, (1S,2S)-2-fluoro-N-(3-(2-(2,2,2-trifluoroethoxy)pyridin-3-yl)-1H-pyrrolo[2,3-b]pyridin-6-yl)cyclopropane-1-carboxamide] are above 10000 nM, 2580 nM, 2010 nM and 3860 nM.
For the molecule `COc1ccccc1-c1c[nH]c2nc(NC(=O)NCCC3CCN(C4COC4)CC3)ccc12` [Compound 110, 3-[3-(2-methoxyphenyl)-1H-pyrrolo[2,3-b]pyridin-6-yl]-1-[2-[1-(oxetan-3-yl)piperidin-4-yl]ethyl]urea], the IC50 in the test with HL60 cells is above 10000 nM; on ABL1 it was 74.8 nM; in the test on K562 cells, 382 nM; against ABL1 (T315I), 18.2 nM.
The corresponding values for `COc1ccccc1-c1c[nH]c2nc(NC(=O)C3CC3)ccc12` [Compound 1, N-(3-(2-methoxyphenyl)-1H-pyrrolo[2,3-b]pyridin-6-yl)cyclopropanecarboxamide] are above 10000 nM, 37.9 nM, 101 nM and 11.3 nM.
As to `[2H]C([2H])([2H])Oc1ccccc1-c1n[nH]c2nc(NC(=O)[C@@H]3C[C@@H]3F)ccc12` [Compound 101, (1S,2S)-2-fluoro-N-(3-(2-(methoxy-d3)phenyl)-1H-pyrazolo[3,4-b]pyridin-6-yl)cyclopropane-1-carboxamide], the IC50 with HL60 cells was above 10000 nM; against ABL1, 16.4 nM; in the test with K562 cells, 94.2 nM; against ABL1 (T315I), 15.3 nM.
The corresponding values for `COc1nccc(C)c1-c1c[nH]c2nc(NC(=O)[C@@H]3C[C@@H]3F)ccc12` [Compound 113, (1S,2S)-2-fluoro-N-[3-(2-methoxy-4-methylpyridin-3-yl)-1H-pyrrolo[2,3-b]pyridin-6-yl]cyclopropane-1-carboxamide] are above 10000 nM, 20.9 nM, 174 nM and 15.9 nM.
The corresponding values for `O=C(Nc1ccc2c(-c3cccc(O)c3)c[nH]c2n1)C1CC1` [Compound 13, N-[3-(3-hydroxyphenyl)-1H-pyrrolo[2,3-b]pyridin-6-yl]cyclopropanecarboxamide] are 4450 nM, 96.6 nM, 202 nM and 9.74 nM.
The corresponding values for `COc1cc2[nH]nnc2cc1-c1c[nH]c2nc(NC(=O)[C@@H]3C[C@@H]3F)ccc12` [Compound 96, (1S,2S)-2-fluoro-N-[3-(6-methoxy-1H-1,2,3-benzotriazol-5-yl)-1H-pyrrolo[2,3-b]pyridin-6-yl]cyclopropane-1-carboxamide] are above 10000 nM, 8.87 nM, 862 nM and 8.93 nM.
Turning to `COc1cccc(F)c1-c1c[nH]c2nc(NC(=O)[C@H]3C[C@H]3F)ccc12` [Compound 22, (1R,2R)-2-fluoro-N-[3-(2-fluoro-6-methoxyphenyl)-1H-pyrrolo[2,3-b]pyridin-6-yl]cyclopropane-1-carboxamide], the IC50 is above 10000 nM with HL60 cells, 78.9 nM on ABL1, 421 nM in the test on K562 cells and 7.17 nM against ABL1 (T315I).
Turning to `COc1nccc(C)c1-c1n[nH]c2nc(NC(=O)[C@@H]3C[C@@H]3F)ccc12` [Compound 112, (1S,2S)-2-fluoro-N-[3-(2-methoxy-4-methylpyridin-3-yl)-1H-pyrazolo[3,4-b]pyridin-6-yl]cyclopropane-1-carboxamide], the IC50 was above 10000 nM in the test on HL60 cells, 271 nM against ABL1, 1860 nM in the test on K562 cells and 157 nM against ABL1 (T315I).
For the molecule `CNc1ncccc1-c1c[nH]c2nc(NC(=O)C3CC3)ccc12` [Compound 37, N-[3-[2-(methylamino)pyridin-3-yl]-1H-pyrrolo[2,3-b]pyridin-6-yl]cyclopropanecarboxamide], the IC50 in the test with HL60 cells was above 10000 nM; at ABL1 it was 46.1 nM; in the test on K562 cells, 231 nM; against ABL1 (T315I), 103 nM.
